Source: US20230057130A1, “FORMULATIONS OF 19-NOR C3,3-DISUBSTITUTED C21-N-PYRAZOLYL STEROID AND METHODS OF USE THEREOF” (priority 2020, published 2023)
Converted amounts (≈) assume the structure as drawn. “And” between values parts separate entries of the source, which are not always exact repeats. Equal values may be shown once. Read-outs that look alike come from different tables or passages of the source.

How the values were obtained:
[1] = Solubility of the compound of formula (I) in aqueous media; assay type: physicochemical
Text: The compound of formula (I) belongs in the high permeability, poor solubility drug classification (BCS 2) described in the Biopharmaceutics Classification System (BCS). In the improved widely accepted Developability Classification System (DCS) discussed by Butler and Dressman, the high permeability low solubility category is further divided into two classifications. Specifically, the ratio of the dose to the solubility of the drug in FaSSIF can be used to predict the extent of human absorption. Class 2a describes compounds that have good permeability and poor solubility with a smaller dose to solubility ratio. Class 2b describes compounds that have a higher dose to solubility ratio and likely will be incompletely absorbed unless the drug is formulated in an already solubilized form, and therefore might present a major challenge to the formulator. […] That is, even for a dose of 10 mg about only 1.2% of the dose of the drug may dissolve in a glass of water or FaSSIF. For Class 2b compounds the system predicts that particle reduction should have no impact on bioavailability. Martinez and Amidon offer: “In the case of solubility-limited absorption particle size exerts minimal effect on the fraction of drug absorbed. In this situation, fraction of drug absorbed can only be improved by enhancing drug solubility (e.g., via inclusion of surfactants in the drug formulation.) Conversely particle size exerts its greatest effect when solubility is not a problem.” (Martinez and Amidon; J. Clin. Pharmacol.; 2002; 42; 620-643). In light of the very large […] for the compound of formula (I), oral absorption of the compound of formula (I) is solubility limited, and reduction of particle size should not affect its bioavailability.

[2] = Particle size distribution by laser diffraction (Malvern Mastersizer 2000); assay type: physicochemical; conditions: for Particle Size D10 / Particle Size D50 / Particle Size D90: laser diffraction
Text: As used herein, the term “particle size” or “particle size distribution (PSD)” when referring to the compound of formula (I) is a list of values that defines the relative amount, typically by mass or volume, of particles present according to size. The distribution data may be reported as cumulative distributions and/or as density distributions by volume or mass such as D(v, 0.1), D(v, 0.5) and D(v, 0.9). In various embodiments, the particle size of a compound of formula (I) may be measured using laser diffraction techniques (e.g., dispersing particles in a sample and illuminating the sample in a collimated laser-beam by scattering light over a range of angles). The large particles generate a high scattering intensity at relatively narrow angles to the incident beam, while the smaller particles produce a lower intensity signal but at much wider angles. Using an array of detectors, laser-diffraction analyzers record the pattern of scattered light produced by the sample. With the application of an appropriate model of light behavior the particle-size distribution of the sample can be determined from the scattering data, via a deconvolution step.
The particle size distribution of Compound 1 was measured using a laser diffraction method. A sample of Compound 1 was either dispersed in water or wetted and dispersed in 0.2% w/v Tween 80 in water to a final concentration spanning approximately 2.5 to 60 mg/mL. Using a Malvern Mastersizer 2000 with a Hydro 2000S sample dispersion unit the obscuration was adjusted to between 10 and 30%. The stir speed was adjusted to 2250-2500 rpm, pre-measurement delay to approximately 30 s, sample measurement time to around 10-15 s, background measurement time to around 10-15 s and the particle shape assumed to be irregular. The samples were at a concentration between 0.0032-0.0044% vol and had specific surface area between 1.65 and 2.10 m^2/g, a surface weighted mean between 2.87 and 3.64 μm, and a volume weighed mean between 3.62 and 4.67 μm. The measurements were obtained using the Mie scattering model (material refractive index=1.520, dispersant refractive index=1.330, absorption=0.001 or 0.1) with normal sensitivity.

[3] = Pharmacokinetic profile of Form C of Compound 1 (micronized and un-micronized) in rat, oral gavage; assay type: in vivo; conditions: male Sprague-Dawley rats, oral gavage 15 mg/kg; for AUClast / Cmax / Tmax: suspended in 2% aqueous PVP-VA, 15 mg/kg
Description: Two groups, each with three male Sprague-Dawley rats, received an oral gavage dose of Compound 1 (un-micronized Form C or micronized Form C) suspended in 2% aqueous PVP-VA at a concentration and volume intended to achieve a target dose level of 15 mg/kg.
Serial blood samples were collected from each animal at 0.25, 0.5, 1, 2, 4, 6, 8 and 24 hours after dosing. Blood samples, which were collected into tubes containing K2EDTA, were processed for plasma. Plasma samples were analyzed for Compound 1 by LC-MS/MS. Non-compartmental pharmacokinetic parameter estimates were calculated from the plasma concentration-time data for each animal. […] In Table 8 the subscripts to AUC last and inf refer to that AUC to the last sampling time point and extrapolated to infinite time, respectively.

[4] = lot used for 8 kg blend batch, 20 mg dose strength
[5] = lot used for 12 kg blend batch, 30 mg dose strength
[6] = lot used for 34.7 kg blend batch, 20 mg dose strength
[7] = lot used for 52 kg blend batch, 30 mg dose strength

Row | Compound | Particle Size D10 [2] [μm] | Particle Size D50 [2] | Particle Size D90 [2] | other results
1 | C[C@@]1(O)CC[C@H]2[C@H](CC[C@@H]3[C@@H]2CC[C@]2(C)[C@@H](C(=O)Cn4cc(C#N)cn4)CC[C@@H]32)C1 [Compound 1, 1-(2-((3R,5R,8R,9R,10S,13S,14S,17S)-3-hydroxy-3,13-dimethylhexadecahydro-1H-cyclopenta[a]phenanthren-17-yl)-2-oxoethyl)-1H-pyrazole-4-carbonitrile] | – | – | – | solubility in aqueous media [1]: practically insoluble; ratio of the dose to solubility in FaSSIF ([1]; 10 mg dose): greater than 10,000; ratio of the dose to solubility in FaSSIF ([1]; 20 mg dose): > 20,000; ratio of the dose to solubility in FaSSIF ([1]; 30 mg dose): > 30,000; ratio of the dose to solubility in FaSSIF ([1]; 90 mg dose): > 90,000; ratio of the dose to solubility in FaSSIF ([1]; 100 mg dose): > 100,000; part of the dose that may dissolve in a glass of water or FaSSIF ([1]; dose of 10 mg): ~1.2%; Biopharmaceutics Classification System (BCS) classification ([1]; high permeability, poor solubility): BCS 2; solubility ([1]; water): 0.8 to 3 µg/mL (≈ 1.95 to 7.32 µM)
2 | C[C@@]1(O)CC[C@H]2[C@H](CC[C@@H]3[C@@H]2CC[C@]2(C)[C@@H](C(=O)Cn4cc(C#N)cn4)CC[C@@H]32)C1 [Micronized Form A of Compound 1] | 1.5 | 4.2 μm | 11.1 μm | –
3 | C[C@@]1(O)CC[C@H]2[C@H](CC[C@@H]3[C@@H]2CC[C@]2(C)[C@@H](C(=O)Cn4cc(C#N)cn4)CC[C@@H]32)C1 [Micronized Form C of Compound 1] | – | 3.5 μm and 3.2 μm and 4.1 μm and 3.7 μm | 6.6 μm and 6.1 μm and 8.0 μm and 8.9 μm | Particle Size Distribution D10 [2, 4]: 1.7; Particle Size Distribution D50 [2, 4]: 3.2; Particle Size Distribution D90 [2, 4]: 6.1; Particle Size Distribution D10 [2, 5]: 1.7; Particle Size Distribution D50 [2, 5]: 3.2; Particle Size Distribution D90 [2, 5]: 6.1; Particle Size Distribution D10 [2, 6]: 1.8; Particle Size Distribution D50 [2, 6]: 3.3; Particle Size Distribution D90 [2, 6]: 6.5; Particle Size Distribution D10 [2, 7]: 2.1; Particle Size Distribution D50 [2, 7]: 4.1; Particle Size Distribution D90 [2, 7]: 8.0; AUClast [3]: 3647 ng·h/mL; Cmax [3]: 308 ng/mL; Tmax [3]: 6.00 h
4 | C[C@@]1(O)CC[C@H]2[C@H](CC[C@@H]3[C@@H]2CC[C@]2(C)[C@@H](C(=O)Cn4cc(C#N)cn4)CC[C@@H]32)C1 [Micronized Form C of Compound 1a] | 0.9 | 2.4 μm | 6.1 μm | –
5 | C[C@@]1(O)CC[C@H]2[C@H](CC[C@@H]3[C@@H]2CC[C@]2(C)[C@@H](C(=O)Cn4cc(C#N)cn4)CC[C@@H]32)C1 [Micronized Form C of Compound 1b] | 0.8 | 2.1 μm | 5.2 μm | –
6 | C[C@@]1(O)CC[C@H]2[C@H](CC[C@@H]3[C@@H]2CC[C@]2(C)[C@@H](C(=O)Cn4cc(C#N)cn4)CC[C@@H]32)C1 [Micronized Form C of Compound 1c] | 1.1 | 2.7 μm | 5.4 μm | –
7 | C[C@@]1(O)CC[C@H]2[C@H](CC[C@@H]3[C@@H]2CC[C@]2(C)[C@@H](C(=O)Cn4cc(C#N)cn4)CC[C@@H]32)C1 [Micronized Form C of Compound 1d] | 1.0 | 2.4 μm | 4.6 μm | –
8 | C[C@@]1(O)CC[C@H]2[C@H](CC[C@@H]3[C@@H]2CC[C@]2(C)[C@@H](C(=O)Cn4cc(C#N)cn4)CC[C@@H]32)C1 [Un-micronized Form C of Compound 1] | – | – | – | AUClast [3]: 979 ng·h/mL; Cmax [3]: 83.6 ng/mL; Tmax ([3]; male, Sprague-Dawley, rat, plasma, po, read-out: Tmax): 6.67 h; AUC(0-inf) ([3]; rat, plasma, extrapolated to infinite time): 854 ng·h/mL
9 | C[C@@]1(O)CC[C@H]2[C@H](CC[C@@H]3[C@@H]2CC[C@]2(C)[C@@H](C(=O)Cn4cc(C#N)cn4)CC[C@@H]32)C1 [Un-micronized Form C of Compound 1a] | 3.1 | 11.8 μm | 27.1 μm | –
10 | C[C@@]1(O)CC[C@H]2[C@H](CC[C@@H]3[C@@H]2CC[C@]2(C)[C@@H](C(=O)Cn4cc(C#N)cn4)CC[C@@H]32)C1 [Un-micronized Form C of Compound 1b] | 3.2 | 14.7 μm | 33.6 μm | –
11 | C[C@@]1(O)CC[C@H]2[C@H](CC[C@@H]3[C@@H]2CC[C@]2(C)[C@@H](C(=O)Cn4cc(C#N)cn4)CC[C@@H]32)C1 [Un-micronized Form C of Compound 1c] | 3.6 | 16.0 μm | 35.5 μm | –
12 | C[C@@]1(O)CC[C@H]2[C@H](CC[C@@H]3[C@@H]2CC[C@]2(C)[C@@H](C(=O)Cn4cc(C#N)cn4)CC[C@@H]32)C1 [Un-micronized Form C of Compound 1d] | 5.6 | 16.2 μm | 37.7 μm | –
